Entries after “also recorded” stand apart in the source; their conditions may differ.
What was measured:
Assay in all cases: AHC metabolism by recombinant cDNA-expressed CYP isoform
Format in all cases: in vitro ADME
CYP2C19 = target: T1, CYP2C19 (Homo sapiens, UniProt P33261); conditions: 10 µM AHC, 10 pmol recombinant CYP, NGS, 37 °C, 60 min
T1 construct: purchased Corning Gentest
Description: (§1) To identify the metabolic enzymes for AHC, 10 µM AHC was incubated with 10 pmol of human recombinant cDNA-expressed CYP isoforms (CYP1A1, 1A2, 2A6, 2B6, 2C8, 2C9, 2C19, 2D6, 2E1, 3A4, and 3A5) in the presence of 0.1 M potassium phosphate buffer (pH 7.4). The reaction was initiated by adding 100 µL of NGS at 37 °C for 60 min. Then, the mixture was suspended by adding 400 µL of ice-cold 100% ACN. Following centrifugation at 15,700× g for 10 min at 4 °C, the supernatant was transferred to a new tube and evaporated using a speed-vacuum concentrator. Next, the dried sample was diluted with 100 µL of 20% MeOH containing 0.1% formic acid, and a 5 µL aliquot was injected into a C18 column for LC–MS/MS analysis.
(§2) To identify the CYP isoforms involved in AHC metabolism, AHC (10 µM) was incubated with eleven cDNA-expressed recombinant CYP isoforms (CYP1A1, CYP1A2, CYP2A6, CYP2B6, CYP2C8, CYP2C9, CYP2C19, CYP2D6, CYP2E1, CYP3A4, and CYP3A5) in the presence of the NGS. […] However, the metabolites of AHC were not observed from reactions with other CYPs. Thus, in the metabolism of AHC in HLMs, CYP3A4 was involved as the main enzyme, and four types of metabolites were generated.

CYP2D6 = target: T2, CYP2D6 (Homo sapiens, UniProt P10635); conditions: 10 µM AHC, 10 pmol recombinant CYP, NGS, 37 °C, 60 min
T2 construct: purchased Corning Gentest
T2 sequence (P10635 whole entry): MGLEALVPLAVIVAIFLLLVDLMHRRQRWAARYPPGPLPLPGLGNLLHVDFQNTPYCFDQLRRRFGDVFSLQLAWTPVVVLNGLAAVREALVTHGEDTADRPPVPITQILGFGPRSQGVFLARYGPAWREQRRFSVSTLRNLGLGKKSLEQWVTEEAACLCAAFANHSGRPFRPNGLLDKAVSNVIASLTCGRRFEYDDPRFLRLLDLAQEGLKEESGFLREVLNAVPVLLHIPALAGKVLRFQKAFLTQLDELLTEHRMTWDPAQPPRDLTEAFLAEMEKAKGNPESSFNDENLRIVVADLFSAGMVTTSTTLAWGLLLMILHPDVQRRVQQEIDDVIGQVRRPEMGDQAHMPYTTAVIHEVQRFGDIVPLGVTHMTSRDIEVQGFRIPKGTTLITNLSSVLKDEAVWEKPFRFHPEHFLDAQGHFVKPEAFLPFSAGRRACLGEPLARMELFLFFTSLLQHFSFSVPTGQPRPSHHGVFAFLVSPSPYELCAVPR
Description: as §1, §2

CYP3A4 = target: T3, CYP3A4 (Homo sapiens, UniProt P08684); conditions: 10 µM AHC, 10 pmol recombinant CYP3A4, NGS, 37 °C, 60 min
T3 construct: purchased Corning Gentest
T3 sequence (P08684 whole entry): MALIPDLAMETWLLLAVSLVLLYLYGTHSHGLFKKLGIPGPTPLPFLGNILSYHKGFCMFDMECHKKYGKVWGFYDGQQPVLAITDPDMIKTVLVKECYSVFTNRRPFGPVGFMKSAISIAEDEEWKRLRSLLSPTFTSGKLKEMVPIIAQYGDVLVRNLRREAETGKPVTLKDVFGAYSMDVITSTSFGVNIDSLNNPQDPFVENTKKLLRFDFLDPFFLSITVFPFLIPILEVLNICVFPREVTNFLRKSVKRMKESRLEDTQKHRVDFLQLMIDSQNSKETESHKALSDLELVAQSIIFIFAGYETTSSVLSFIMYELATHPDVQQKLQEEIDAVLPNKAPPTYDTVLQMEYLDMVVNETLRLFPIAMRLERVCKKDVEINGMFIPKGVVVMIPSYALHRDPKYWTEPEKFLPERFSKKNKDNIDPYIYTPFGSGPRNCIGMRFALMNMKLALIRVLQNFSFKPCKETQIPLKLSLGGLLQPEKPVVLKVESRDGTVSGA
Description: as §1, §2

CYP2B6 = target: T4, CYP2B6 (Homo sapiens, UniProt P20813); conditions: 10 µM AHC, 10 pmol recombinant CYP, NGS, 37 °C, 60 min
T4 construct: purchased Corning Gentest
T4 sequence (P20813 1-491): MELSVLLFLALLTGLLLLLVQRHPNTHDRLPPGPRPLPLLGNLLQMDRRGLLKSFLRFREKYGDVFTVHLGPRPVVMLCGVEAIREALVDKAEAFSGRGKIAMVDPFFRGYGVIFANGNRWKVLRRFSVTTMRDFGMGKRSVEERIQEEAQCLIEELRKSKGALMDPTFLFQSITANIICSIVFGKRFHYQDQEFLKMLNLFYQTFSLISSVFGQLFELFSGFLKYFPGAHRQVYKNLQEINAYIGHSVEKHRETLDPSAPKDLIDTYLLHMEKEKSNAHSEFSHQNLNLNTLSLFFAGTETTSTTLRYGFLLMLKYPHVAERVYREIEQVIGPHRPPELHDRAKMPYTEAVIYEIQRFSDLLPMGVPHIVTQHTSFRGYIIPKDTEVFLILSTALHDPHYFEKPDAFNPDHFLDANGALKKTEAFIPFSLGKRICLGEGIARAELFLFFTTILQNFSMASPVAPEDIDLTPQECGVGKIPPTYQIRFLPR
Description: as §1, §2

CYP2C8 = target: T5, CYP2C8 (Homo sapiens, UniProt P10632); conditions: 10 µM AHC, 10 pmol recombinant CYP, NGS, 37 °C, 60 min
T5 construct: purchased Corning Gentest
T5 sequence (P10632 1-490): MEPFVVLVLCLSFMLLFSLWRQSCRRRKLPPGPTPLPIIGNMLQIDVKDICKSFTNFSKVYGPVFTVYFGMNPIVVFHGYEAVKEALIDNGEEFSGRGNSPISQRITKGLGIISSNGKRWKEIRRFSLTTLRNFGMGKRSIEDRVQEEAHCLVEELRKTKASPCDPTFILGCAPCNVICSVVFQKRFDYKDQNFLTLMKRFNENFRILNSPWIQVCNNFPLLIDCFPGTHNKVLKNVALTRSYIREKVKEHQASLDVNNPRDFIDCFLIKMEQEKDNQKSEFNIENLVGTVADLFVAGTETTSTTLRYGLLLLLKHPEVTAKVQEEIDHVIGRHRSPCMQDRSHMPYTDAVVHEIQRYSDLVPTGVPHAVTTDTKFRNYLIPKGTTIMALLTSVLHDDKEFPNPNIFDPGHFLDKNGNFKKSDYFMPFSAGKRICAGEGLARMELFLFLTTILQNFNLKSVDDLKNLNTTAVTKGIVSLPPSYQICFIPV
Description: as §1, §2

CYP1A1 = target: T6, CYP1A1 (Homo sapiens, UniProt P04798); conditions: 10 µM AHC, 10 pmol recombinant CYP, NGS, 37 °C, 60 min
T6 construct: purchased Corning Gentest
T6 sequence (P04798 1-512): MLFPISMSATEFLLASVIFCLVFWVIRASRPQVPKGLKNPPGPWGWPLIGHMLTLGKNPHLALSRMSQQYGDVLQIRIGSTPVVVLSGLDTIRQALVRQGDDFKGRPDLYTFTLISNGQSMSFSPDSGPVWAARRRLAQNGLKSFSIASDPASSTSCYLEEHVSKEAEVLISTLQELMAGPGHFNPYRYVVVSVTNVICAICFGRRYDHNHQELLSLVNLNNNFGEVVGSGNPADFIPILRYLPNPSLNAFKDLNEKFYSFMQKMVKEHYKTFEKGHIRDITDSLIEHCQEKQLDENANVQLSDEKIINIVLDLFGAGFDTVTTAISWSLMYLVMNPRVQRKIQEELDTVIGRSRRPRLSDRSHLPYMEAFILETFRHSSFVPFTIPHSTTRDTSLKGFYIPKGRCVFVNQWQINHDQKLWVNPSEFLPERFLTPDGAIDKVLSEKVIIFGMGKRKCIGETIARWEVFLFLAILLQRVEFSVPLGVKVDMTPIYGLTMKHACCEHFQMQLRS
Description: as §1, §2

CYP2C9 = target: T7, CYP2C9 (Homo sapiens, UniProt P11712); conditions: 10 µM AHC, 10 pmol recombinant CYP, NGS, 37 °C, 60 min
T7 construct: purchased Corning Gentest
T7 sequence (P11712 whole entry): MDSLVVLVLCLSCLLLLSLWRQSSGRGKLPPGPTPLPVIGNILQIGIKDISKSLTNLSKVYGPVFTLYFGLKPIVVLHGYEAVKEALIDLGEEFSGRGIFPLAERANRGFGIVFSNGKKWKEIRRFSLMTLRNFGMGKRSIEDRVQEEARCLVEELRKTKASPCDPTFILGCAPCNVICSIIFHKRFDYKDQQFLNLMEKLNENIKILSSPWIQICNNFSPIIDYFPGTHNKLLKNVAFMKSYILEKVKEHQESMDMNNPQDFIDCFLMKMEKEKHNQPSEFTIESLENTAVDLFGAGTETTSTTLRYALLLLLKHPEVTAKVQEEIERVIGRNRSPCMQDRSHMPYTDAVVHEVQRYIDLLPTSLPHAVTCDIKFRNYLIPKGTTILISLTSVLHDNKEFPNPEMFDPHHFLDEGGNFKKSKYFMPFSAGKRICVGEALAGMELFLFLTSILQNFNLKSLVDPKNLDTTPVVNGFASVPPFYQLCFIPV
Description: as §1, §2

CYP2A6 = target: T8, CYP2A6 (Homo sapiens, UniProt P11509); conditions: 10 µM AHC, 10 pmol recombinant CYP, NGS, 37 °C, 60 min
T8 construct: purchased Corning Gentest
T8 sequence (P11509 1-494): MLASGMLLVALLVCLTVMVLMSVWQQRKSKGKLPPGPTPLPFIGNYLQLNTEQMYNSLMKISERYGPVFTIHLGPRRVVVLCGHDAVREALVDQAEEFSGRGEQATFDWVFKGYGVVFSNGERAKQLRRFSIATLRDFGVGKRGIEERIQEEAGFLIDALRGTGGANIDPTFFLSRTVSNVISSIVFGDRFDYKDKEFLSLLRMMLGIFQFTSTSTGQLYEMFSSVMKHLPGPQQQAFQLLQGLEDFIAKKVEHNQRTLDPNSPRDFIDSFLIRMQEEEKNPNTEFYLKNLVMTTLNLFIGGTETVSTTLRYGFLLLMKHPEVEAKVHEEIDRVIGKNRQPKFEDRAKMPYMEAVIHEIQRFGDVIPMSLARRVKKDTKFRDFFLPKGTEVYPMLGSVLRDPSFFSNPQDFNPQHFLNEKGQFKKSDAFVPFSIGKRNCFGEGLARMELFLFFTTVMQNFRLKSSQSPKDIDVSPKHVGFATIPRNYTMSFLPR
Description: as §1, §2

T1 sequence (P33261 whole entry): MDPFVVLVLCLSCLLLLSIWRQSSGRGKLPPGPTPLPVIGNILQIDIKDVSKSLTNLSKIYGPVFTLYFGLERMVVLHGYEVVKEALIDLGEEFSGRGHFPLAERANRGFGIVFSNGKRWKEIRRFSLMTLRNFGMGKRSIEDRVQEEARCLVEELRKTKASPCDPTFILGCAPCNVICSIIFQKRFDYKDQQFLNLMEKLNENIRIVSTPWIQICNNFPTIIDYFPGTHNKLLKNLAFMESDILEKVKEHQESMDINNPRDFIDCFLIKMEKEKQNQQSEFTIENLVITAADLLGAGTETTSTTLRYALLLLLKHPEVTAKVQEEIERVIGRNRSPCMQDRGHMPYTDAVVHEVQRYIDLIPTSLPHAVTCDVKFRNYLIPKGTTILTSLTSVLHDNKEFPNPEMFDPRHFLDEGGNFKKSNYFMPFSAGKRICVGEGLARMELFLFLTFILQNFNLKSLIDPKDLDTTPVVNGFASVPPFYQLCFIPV

## CC(=O)O[C@@H]1[C@@H](C)CC[C@]2(O)[C@]3(C)CC(=O)O[C@]12[C@@]1(O)C(C)=C(C(C)C)C[C@@]31O [AHC, anhydrocinnzeylanine]
CYP2C19
  metabolites of AHC from reaction with CYP2C19: not observed
CYP2D6
  metabolites of AHC from reaction with CYP2D6: not observed
CYP3A4
  metabolism of AHC by CYP3A4: major CYP responsible for the metabolism of AHC; also recorded: predominantly metabolized by CYP3A4
CYP2B6
  metabolites of AHC from reaction with CYP2B6: not observed
CYP2C8
  metabolites of AHC from reaction with CYP2C8: not observed
CYP1A1
  metabolites of AHC from reaction with CYP1A1: not observed
CYP2C9
  metabolites of AHC from reaction with CYP2C9: not observed
CYP2A6
  metabolites of AHC from reaction with CYP2A6: not observed
